Measurements as given in the CheMixHub viscosity set.
Several values for one entry are separate records, joined by “and”; a condition that tells them apart may be missing. Equal entries are not always repeated.

Assay: xn = mol fraction of the nth substance listed

CCc1ccccc1 + c1ccccc1
Conditions	viscosity
293.15 K, 101.33 kPa, x2 = 0.2323	0.657 mPa·s
293.15 K, 101.33 kPa, x2 = 0.4707	0.646 mPa·s
293.15 K, 101.33 kPa, x2 = 0.5427	0.644 mPa·s
293.15 K, 101.33 kPa, x2 = 0.7124	0.635 mPa·s
293.15 K, 101.33 kPa, x2 = 0.8608	0.64 mPa·s
298.15 K, 101.3 kPa, x2 = 0.0268	0.632 mPa·s
298.15 K, 101.3 kPa, x2 = 0.1358	0.6249 mPa·s
298.15 K, 101.3 kPa, x2 = 0.2562	0.6202 mPa·s
298.15 K, 101.3 kPa, x2 = 0.3579	0.6177 mPa·s
298.15 K, 101.3 kPa, x2 = 0.4426	0.6157 mPa·s
298.15 K, 101.3 kPa, x2 = 0.5472	0.6134 mPa·s
298.15 K, 101.3 kPa, x2 = 0.6302	0.6115 mPa·s
298.15 K, 101.3 kPa, x2 = 0.7423	0.608 mPa·s
298.15 K, 101.3 kPa, x2 = 0.8318	0.6056 mPa·s
298.15 K, 101.3 kPa, x2 = 0.9404	0.6027 mPa·s
298.15 K, 101.33 kPa, x1 = 0.1	0.599 mPa·s
298.15 K, 101.33 kPa, x1 = 0.2	0.601 mPa·s and 0.601 mPa·s
298.15 K, 101.33 kPa, x1 = 0.4	0.603 mPa·s
298.15 K, 101.33 kPa, x1 = 0.5	0.607 mPa·s and 0.607 mPa·s
298.15 K, 101.33 kPa, x1 = 0.6	0.608 mPa·s
298.15 K, 101.33 kPa, x1 = 0.8	0.616 mPa·s
298.15 K, 101.33 kPa, x2 = 0.145	0.6185 mPa·s
298.15 K, 101.33 kPa, x2 = 0.2147	0.6165 mPa·s
298.15 K, 101.33 kPa, x2 = 0.2942	0.6156 mPa·s
298.15 K, 101.33 kPa, x2 = 0.4187	0.6078 mPa·s
298.15 K, 101.33 kPa, x2 = 0.4944	0.6057 mPa·s
298.15 K, 101.33 kPa, x2 = 0.5926	0.6038 mPa·s
298.15 K, 101.33 kPa, x2 = 0.6887	0.6029 mPa·s
298.15 K, 101.33 kPa, x2 = 0.7786	0.6012 mPa·s
298.15 K, 101.33 kPa, x2 = 0.8938	0.6006 mPa·s
298.15 K, 101.33 kPa, x2 = 0.9568	0.6008 mPa·s
303.15 K, 101.3 kPa, x2 = 0.1358	0.5881 mPa·s
303.15 K, 101.3 kPa, x2 = 0.2562	0.5827 mPa·s
303.15 K, 101.3 kPa, x2 = 0.3579	0.5777 mPa·s
303.15 K, 101.3 kPa, x2 = 0.4426	0.5744 mPa·s
303.15 K, 101.3 kPa, x2 = 0.5472	0.571 mPa·s
303.15 K, 101.3 kPa, x2 = 0.6302	0.5678 mPa·s
303.15 K, 101.3 kPa, x2 = 0.7423	0.5637 mPa·s
303.15 K, 101.3 kPa, x2 = 0.8318	0.5608 mPa·s
303.15 K, 101.3 kPa, x2 = 0.9404	0.5574 mPa·s
303.15 K, 101.33 kPa, x2 = 0.2323	0.583 mPa·s
303.15 K, 101.33 kPa, x2 = 0.4707	0.57 mPa·s
303.15 K, 101.33 kPa, x2 = 0.5427	0.568 mPa·s
303.15 K, 101.33 kPa, x2 = 0.7124	0.56 mPa·s
303.15 K, 101.33 kPa, x2 = 0.8608	0.561 mPa·s
308.15 K, 101.33 kPa, x1 = 0.1	0.528 mPa·s
308.15 K, 101.33 kPa, x1 = 0.2	0.53 mPa·s
308.15 K, 101.33 kPa, x1 = 0.4	0.535 mPa·s
308.15 K, 101.33 kPa, x1 = 0.6	0.542 mPa·s
308.15 K, 101.33 kPa, x1 = 0.8	0.551 mPa·s
313.15 K, 101.33 kPa, x2 = 0.2323	0.521 mPa·s
313.15 K, 101.33 kPa, x2 = 0.5427	0.506 mPa·s
313.15 K, 101.33 kPa, x2 = 0.7124	0.498 mPa·s
313.15 K, 101.33 kPa, x2 = 0.8608	0.493 mPa·s
318.15 K, 101.33 kPa, x1 = 0.1	0.468 mPa·s
318.15 K, 101.33 kPa, x1 = 0.2	0.471 mPa·s
318.15 K, 101.33 kPa, x1 = 0.4	0.477 mPa·s
318.15 K, 101.33 kPa, x1 = 0.5	0.481 mPa·s
318.15 K, 101.33 kPa, x1 = 0.6	0.484 mPa·s
318.15 K, 101.33 kPa, x1 = 0.8	0.492 mPa·s
318.15 K, 101.33 kPa, x2 = 0.145	0.4939 mPa·s
318.15 K, 101.33 kPa, x2 = 0.2147	0.4912 mPa·s
318.15 K, 101.33 kPa, x2 = 0.2942	0.4912 mPa·s
318.15 K, 101.33 kPa, x2 = 0.4187	0.4812 mPa·s
318.15 K, 101.33 kPa, x2 = 0.4944	0.4774 mPa·s
318.15 K, 101.33 kPa, x2 = 0.5926	0.4737 mPa·s
318.15 K, 101.33 kPa, x2 = 0.6887	0.469 mPa·s
318.15 K, 101.33 kPa, x2 = 0.7786	0.4657 mPa·s
318.15 K, 101.33 kPa, x2 = 0.8938	0.4621 mPa·s
318.15 K, 101.33 kPa, x2 = 0.9568	0.4607 mPa·s
323.15 K, 101.33 kPa, x1 = 0.1	0.44 mPa·s
323.15 K, 101.33 kPa, x1 = 0.2	0.443 mPa·s and 0.443 mPa·s
323.15 K, 101.33 kPa, x1 = 0.4	0.449 mPa·s
323.15 K, 101.33 kPa, x1 = 0.5	0.453 mPa·s and 0.453 mPa·s
323.15 K, 101.33 kPa, x1 = 0.6	0.456 mPa·s
323.15 K, 101.33 kPa, x1 = 0.8	0.466 mPa·s
323.15 K, 101.33 kPa, x2 = 0.2323	0.469 mPa·s
323.15 K, 101.33 kPa, x2 = 0.4707	0.456 mPa·s
323.15 K, 101.33 kPa, x2 = 0.5427	0.453 mPa·s
323.15 K, 101.33 kPa, x2 = 0.7124	0.443 mPa·s
323.15 K, 101.33 kPa, x2 = 0.8608	0.44 mPa·s

COC(C)(C)C + c1ccccc1
Conditions	viscosity [mPa·s]
293.15 K, 101.33 kPa, x1 = 0.0933	0.629
293.15 K, 101.33 kPa, x1 = 0.1906	0.5805
293.15 K, 101.33 kPa, x1 = 0.2994	0.5449
293.15 K, 101.33 kPa, x1 = 0.3965	0.5122
293.15 K, 101.33 kPa, x1 = 0.5143	0.4813
293.15 K, 101.33 kPa, x1 = 0.6083	0.4593
293.15 K, 101.33 kPa, x1 = 0.7015	0.4466
293.15 K, 101.33 kPa, x1 = 0.8071	0.416
293.15 K, 101.33 kPa, x1 = 0.9024	0.4052
298.15 K, 101 kPa, x1 = 0.0502	0.566
298.15 K, 101 kPa, x1 = 0.0999	0.551
298.15 K, 101 kPa, x1 = 0.1994	0.499
298.15 K, 101 kPa, x1 = 0.3005	0.473
298.15 K, 101 kPa, x1 = 0.4006	0.457
298.15 K, 101 kPa, x1 = 0.5003	0.437
298.15 K, 101 kPa, x1 = 0.6	0.422
298.15 K, 101 kPa, x1 = 0.7003	0.397
298.15 K, 101 kPa, x1 = 0.8	0.395
298.15 K, 101 kPa, x1 = 0.8997	0.376
298.15 K, 101 kPa, x1 = 0.9497	0.372
298.15 K, 101.33 kPa, x1 = 0.0933	0.5806
298.15 K, 101.33 kPa, x1 = 0.1906	0.5446
298.15 K, 101.33 kPa, x1 = 0.2994	0.5084
298.15 K, 101.33 kPa, x1 = 0.3965	0.4776
298.15 K, 101.33 kPa, x1 = 0.5143	0.4676
298.15 K, 101.33 kPa, x1 = 0.6083	0.4417
298.15 K, 101.33 kPa, x1 = 0.7015	0.4227
298.15 K, 101.33 kPa, x1 = 0.8071	0.4037
298.15 K, 101.33 kPa, x1 = 0.9024	0.398
303.15 K, 101 kPa, x1 = 0.118	0.536
303.15 K, 101 kPa, x1 = 0.2242	0.51
303.15 K, 101 kPa, x1 = 0.3408	0.483
303.15 K, 101 kPa, x1 = 0.5123	0.445
303.15 K, 101 kPa, x1 = 0.6615	0.413
303.15 K, 101 kPa, x1 = 0.8195	0.382
